Test results reported in patent US6613718B2, “Aryl ether derivatives and processes for their preparation and herbicidal and desiccant compositions containing them” (Ishihara Sangyo Kaisha, Ltd., priority 2001, dated 2003).

Tests used:
Type in all cases: in vivo
[1] = tested on: sicklepod (Cassia obtusifolia, CASOB); assay: Pre-emerge greenhouse herbicide activity screening, phytotoxicity rating; settings: 14 days after application
Method in brief: (§1)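 Ratings taken 14 days after treatment on a 0–100 scale, 100 meaning complete plant death. Post-emerge: 2-3 leaf plants, 0.25% v/v surfactant added; pre-emerge: seeds sown a day ahead, soil surface-watered after spraying. Rates 15–1000 g ai/ha in acetone, 187 l/ha.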

[2] = tested on: barnyardgrass (Echinochloa crus-galli, ECHCG); assay: as above; settings: 14 days after application
Method in brief: as §1

[3] = tested on: common ragweed (Ambrosia artemisiifolia L., AMBEL); assay: as above; settings: 14 days after application
Method in brief: as §1

[4] = tested on: johnsongrass (Sorghum halepense, SORHA); assay: as above; settings: 14 days after application
Method in brief: as §1

[5] = tested on: green foxtail (Setaria viridis, SETVI); assay: as above; settings: 14 days after application
Method in brief: as §1

[6] = tested on: velvetleaf (Abutilon theophrasti, ABUTH); assay: as above; settings: 14 days after application
Method in brief: as §1

[7] = tested on: ivyleaf morningglory (Ipomoea hederacea, IPOHE); assay: as above; settings: 14 days after application
Method in brief: as §1

[8] = tested on: large crabgrass (Digitaria sanguinalis, DIGSA); assay: as above; settings: 14 days after application
Method in brief: as §1

[9] = tested on: lambsquarters (Chenopodium album, CHEAL); assay: as above; settings: 14 days after application
Method in brief: as §1

[10] = tested on: redroot pigweed (Amaranthus retroflexus, AMARE); assay: as above; settings: 14 days after application
Method in brief: as §1

[11] = tested on: field corn (Zea mays L., var. Dekalb 535, CORN); assay: Pre-emerge greenhouse screening, crop safety (phytotoxicity rating); settings: 14 days after application
Method in brief: as §1

[12] = tested on: upland rice (Oryza sp., var.Tebonnet, RICE); assay: as above; settings: 14 days after application
Method in brief: as §1

[13] = tested on: soybean (Glycine max L., var. Pella 86, SOY); assay: as above; settings: 14 days after application
Method in brief: as §1

[14] = tested on: upland rice (Oryza sp., var.Tebonnet, RICE); assay: Post-emerge greenhouse screening, crop safety (phytotoxicity rating); settings: 14 days after application
Method in brief: as §1

[15] = tested on: soybean (Glycine max L., var. Pella 86, SOY); assay: as above; settings: 14 days after application
Method in brief: as §1

[16] = tested on: field corn (Zea mays L., var. Dekalb 535, CORN); assay: Post-emerge greenhouse screening, crop safety / corn selectivity (phytotoxicity rating); settings: 14 days after application
Method in brief: as §1

[17] = tested on: sicklepod (Cassia obtusifolia, CASOB); assay: Post-emerge greenhouse herbicide activity screening, phytotoxicity rating
Method in brief: as §1

[18] = tested on: barnyardgrass (Echinochloa crus-galli, ECHCG); assay: as above; settings: 14 days after application
Method in brief: as §1

[19] = tested on: common ragweed (Ambrosia artemisiifolia L., AMBEL); assay: as above
Method in brief: as §1

[20] = tested on: johnsongrass (Sorghum halepense, SORHA); assay: as above; settings: 14 days after application
Method in brief: as §1

[21] = tested on: green foxtail (Setaria viridis, SETVI); assay: as above
Method in brief: as §1

[22] = tested on: velvetleaf (Abutilon theophrasti, ABUTH); assay: as above; settings: 14 days after application
Method in brief: as §1

[23] = tested on: ivyleaf morningglory (Ipomoea hederacea, IPOHE); assay: as above; settings: 14 days after application
Method in brief: as §1

[24] = tested on: large crabgrass (Digitaria sanguinalis, DIGSA); assay: as above; settings: 14 days after application
Method in brief: as §1

[25] = tested on: lambsquarters (Chenopodium album, CHEAL); assay: as above
Method in brief: as §1

[26] = tested on: redroot pigweed (Amaranthus retroflexus, AMARE); assay: as above
Method in brief: as §1

[27] = 125 g ai/ha, 14 days after application
[28] = 250 g ai/ha, 14 days after application

Cn1c(C(F)(F)F)cc(=O)n(-c2cc(Oc3ccccc3)c(C#N)cc2F)c1=S [Compound 1-69]
75: CASOB phytotoxicity rating (0-100 scale) [17, 27]
50: RICE crop damage, phytotoxicity rating (0-100 scale) ([12]; 125 g ai/ha) | SOY crop damage, phytotoxicity rating (0-100 scale) ([13]; 250 g ai/ha) | SOY crop damage, phytotoxicity rating (0-100 scale) ([15]; 250 g ai/ha) | CASOB phytotoxicity rating (0-100 scale) ([17]; 31.3 g ai/ha) | SETVI phytotoxicity rating (0-100 scale) ([21]; 62.5 g ai/ha)
95: ECHCG phytotoxicity rating (0-100 scale) ([2]; 250 g ai/ha) | SORHA phytotoxicity rating (0-100 scale) ([4]; 125 g ai/ha) | SORHA phytotoxicity rating (0-100 scale) ([4]; 250 g ai/ha)
65: CASOB phytotoxicity rating (0-100 scale) ([17]; 62.5 g ai/ha)
80: CHEAL phytotoxicity rating (0-100 scale) ([25]; 31.3 g ai/ha) | CHEAL phytotoxicity rating (0-100 scale) ([25]; 62.5 g ai/ha)
60: RICE crop damage, phytotoxicity rating (0-100 scale) ([12]; 250 g ai/ha)
25: ECHCG phytotoxicity rating (0-100 scale) ([18]; 250 g ai/ha)
30: SOY crop damage, phytotoxicity rating (0-100 scale) ([13]; 125 g ai/ha) | AMBEL phytotoxicity rating (0-100 scale) [19, 27] | SETVI phytotoxicity rating (0-100 scale) [21, 28] | DIGSA phytotoxicity rating (0-100 scale) ([24]; 250 g ai/ha)
5: CORN crop damage, phytotoxicity rating (0-100 scale) ([11]; 125 g ai/ha) | CORN crop damage, phytotoxicity rating (0-100 scale) ([16]; 250 g ai/ha)
10: CORN crop damage, phytotoxicity rating (0-100 scale) ([11]; 250 g ai/ha)
70: CASOB phytotoxicity rating (0-100 scale) [17, 28] | AMBEL phytotoxicity rating (0-100 scale) ([19]; 31.3 g ai/ha) | AMBEL phytotoxicity rating (0-100 scale) ([19]; 62.5 g ai/ha)
35: AMBEL phytotoxicity rating (0-100 scale) [19, 28]
0: RICE crop damage, phytotoxicity rating (0-100 scale) ([14]; 125 g ai/ha) | RICE crop damage, phytotoxicity rating (0-100 scale) ([14]; 250 g ai/ha) | SOY crop damage, phytotoxicity rating (0-100 scale) ([15]; 125 g ai/ha) | CORN crop damage, phytotoxicity rating (0-100 scale) ([16]; 125 g ai/ha) | ECHCG phytotoxicity rating (0-100 scale) ([18]; 125 g ai/ha) | SORHA phytotoxicity rating (0-100 scale) ([20]; 125 g ai/ha) | SORHA phytotoxicity rating (0-100 scale) ([20]; 250 g ai/ha) | SETVI phytotoxicity rating (0-100 scale) ([21]; 31.3 g ai/ha) | SETVI phytotoxicity rating (0-100 scale) [21, 27] | DIGSA phytotoxicity rating (0-100 scale) ([24]; 125 g ai/ha)
99: CASOB phytotoxicity rating (0-100 scale) ([1]; 250 g ai/ha) | DIGSA phytotoxicity rating (0-100 scale) ([8]; 125 g ai/ha) | AMARE phytotoxicity rating (0-100 scale) [26, 27]
100: CASOB phytotoxicity rating (0-100 scale) ([1]; 125 g ai/ha) | AMBEL phytotoxicity rating (0-100 scale) ([3]; 125 g ai/ha) | AMBEL phytotoxicity rating (0-100 scale) ([3]; 250 g ai/ha) | SETVI phytotoxicity rating (0-100 scale) ([5]; 125 g ai/ha) | SETVI phytotoxicity rating (0-100 scale) ([5]; 250 g ai/ha) | ABUTH phytotoxicity rating (0-100 scale) ([6]; 125 g ai/ha) | ABUTH phytotoxicity rating (0-100 scale) ([6]; 250 g ai/ha) | IPOHE phytotoxicity rating (0-100 scale) ([7]; 125 g ai/ha) | IPOHE phytotoxicity rating (0-100 scale) ([7]; 250 g ai/ha) | DIGSA phytotoxicity rating (0-100 scale) ([8]; 250 g ai/ha) | CHEAL phytotoxicity rating (0-100 scale) ([9]; 125 g ai/ha) | CHEAL phytotoxicity rating (0-100 scale) ([9]; 250 g ai/ha) | AMARE phytotoxicity rating (0-100 scale) ([10]; 125 g ai/ha) | AMARE phytotoxicity rating (0-100 scale) ([10]; 250 g ai/ha) | ABUTH phytotoxicity rating (0-100 scale) ([22]; 125 g ai/ha) | ABUTH phytotoxicity rating (0-100 scale) ([22]; 250 g ai/ha) | IPOHE phytotoxicity rating (0-100 scale) ([23]; 125 g ai/ha) | IPOHE phytotoxicity rating (0-100 scale) ([23]; 250 g ai/ha) | CHEAL phytotoxicity rating (0-100 scale) [25, 27] | CHEAL phytotoxicity rating (0-100 scale) [25, 28] | AMARE phytotoxicity rating (0-100 scale) ([26]; 31.3 g ai/ha) | AMARE phytotoxicity rating (0-100 scale) ([26]; 62.5 g ai/ha) | AMARE phytotoxicity rating (0-100 scale) [26, 28]
90: ECHCG phytotoxicity rating (0-100 scale) ([2]; 125 g ai/ha)
